Reference: US4656166A, “Antibiotic compounds derived from cephalosporins, process for their production and pharmaceutical compositions” (Sanofi, priority 1983, dated 1987)
Values after ≈ are worked out from the molar mass of the structure shown.

Tests used:
Type in all cases: cell-based
[1] = system: Escherichia coli SOL 90; test: MIC, in vitro dilution method, Escherichia coli SOL 90 (Table III); conditions: SOL90; Escherichia coli SOL 90; dilution method; read-out: MIC
From the text: (§1) The products of the invention have been studied as regards their pharmacological properties and, more especially, bacteriostatic action. This has been determined in vitro by the dilution method, and the study was on Gram negative strains.
(§2) Results, expressed in minimum inhibiting concentrations (MIC-- μg/ml), are collected in the following table (Table III).

[2] = system: Klebsiella RO 30; test: MIC, in vitro dilution method, Klebsiella RO 30 (Table III); conditions: RO30; Klebsiella RO 30; dilution method; read-out: MIC
From the text: as §1, §2

[3] = system: Enterobacter RO 154; test: MIC, in vitro dilution method, Enterobacter RO 154 (Table III); conditions: RO154; Enterobacter RO 154; dilution method; read-out: MIC
From the text: as §1, §2

[4] = system: Pseudomonas RL 112; test: MIC, in vitro dilution method, Pseudomonas RL 112 (Table III); conditions: RL112
From the text: as §1, §2

Row | SMILES | MIC [1] [µg/mL] | MIC [2] [µg/mL] | MIC [3] [µg/mL] | MIC [4] [µg/mL]
1 | CC(C)(CN)C(=O)SCC1=C(C(=O)O)N2C(=O)C(NC(=O)C(=NOC(C)(C)C(=O)O)c3csc(N)n3)C2[S+]([O-])C1 (stereo not drawn) [compound 42663] | 4 (≈ 6.49 µM) | 1 (≈ 1.62 µM) | 4 (≈ 6.49 µM) | 8 (≈ 13 µM)
2 | NCC(=O)Nc1cccc(C(=O)SCC2=C(C(=O)O)N3C(=O)C(NC(=O)C(=NOC4(C(=O)O)CCC4)c4csc(N)n4)C3[S+]([O-])C2)c1 (stereo not drawn) [compound 42686] | 2 (≈ 2.83 µM) | 1 (≈ 1.42 µM) | 2 (≈ 2.83 µM) | 8 (≈ 11.3 µM)
3 | Cc1cc(C(=O)SCC2=C(C(=O)O)N3C(=O)C(NC(=O)C(=NOC(C)(C)C(=O)O)c4csc(N)n4)C3[S+]([O-])C2)ccc1CN (stereo not drawn) [compound 42661] | 0.5 (≈ 0.752 µM) | 0.25 (≈ 0.376 µM) | 1 (≈ 1.5 µM) | 8 (≈ 12 µM)
4 | CC(C)(ON=C(C(=O)NC1C(=O)N2C(C(=O)O)=C(COC(=O)c3cccc(NC(=O)CCCN)c3)C[S+]([O-])C12)c1csc(N)n1)C(=O)O (stereo not drawn) [42 687] | 2 (≈ 2.83 µM) | 1 (≈ 1.42 µM) | 4 (≈ 5.67 µM) | 8 (≈ 11.3 µM)
5 | CC(C)(ON=C(C(=O)NC1C(=O)N2C(C(=O)O)=C(COC(=O)c3ccc(CN)c(F)c3)C[S+]([O-])C12)c1csc(N)n1)C(=O)O (stereo not drawn) [42 581] | 0.125 (≈ 0.192 µM) | 0.125 (≈ 0.192 µM) | 2 (≈ 3.06 µM) | 4 (≈ 6.13 µM)
6 | CC(C)(ON=C(C(=O)NC1C(=O)N2C(C(=O)O)=C(COC(=O)C3CCC(N)CC3)C[S+]([O-])C12)c1csc(N)n1)C(=O)O (stereo not drawn) [42 811] | 0.125 (≈ 0.199 µM) | 0.125 (≈ 0.199 µM) | 2 (≈ 3.19 µM) | 4 (≈ 6.38 µM)
7 | Cc1cc(NC(=O)CN)c(C)c(C(=O)OCC2=C(C(=O)O)N3C(=O)C(NC(=O)C(=NOC(C)(C)C(=O)O)c4csc(N)n4)C3[S+]([O-])C2)c1 (stereo not drawn) [42 814] | 0.5 (≈ 0.708 µM) | 0.25 (≈ 0.354 µM) | 8 (≈ 11.3 µM) | 8 (≈ 11.3 µM)
8 | CNCC(=O)Nc1cccc(C(=O)OCC2=C(C(=O)O)N3C(=O)C(NC(=O)C(=NOC(C)(C)C(=O)O)c4csc(N)n4)C3[S+]([O-])C2)c1 (stereo not drawn) [42 583] | 1 (≈ 1.45 µM) | 0.5 (≈ 0.723 µM) | 4 (≈ 5.78 µM) | 8 (≈ 11.6 µM)
9 | CC(C)(ON=C(C(=O)NC1C(=O)N2C(C(=O)O)=C(COC(=O)C3CCN(C(=O)CCCN)CC3)C[S+]([O-])C12)c1csc(N)n1)C(=O)O (stereo not drawn) [42 783] | 0.25 (≈ 0.358 µM) | 0.125 (≈ 0.179 µM) | 2 (≈ 2.87 µM) | 8 (≈ 11.5 µM)
10 | CC(N)C(=O)Nc1ccc(C(=O)OCC2=C(C(=O)O)N3C(=O)C(NC(=O)C(=NOC(C)(C)C(=O)O)c4csc(N)n4)C3[S+]([O-])C2)cc1 (stereo not drawn) [42 817] | 0.125 (≈ 0.181 µM) | 0.25 (≈ 0.361 µM) | 4 (≈ 5.78 µM) | 4 (≈ 5.78 µM)
11 | NCCC(=O)Nc1ccc(C(=O)OCC2=C(C(=O)O)N3C(=O)C(NC(=O)C(=NOC4(C(=O)O)CCC4)c4csc(N)n4)C3[S+]([O-])C2)cc1 (stereo not drawn) [42 658] | 0.125 (≈ 0.178 µM) | 0.125 (≈ 0.178 µM) | 8 (≈ 11.4 µM) | 4 (≈ 5.68 µM)
12 | CNCc1ccc(C(=O)OCC2=C(C(=O)O)N3C(=O)C(NC(=O)C(=NOC(C)(C)C(=O)O)c4csc(N)n4)C3[S+]([O-])C2)cc1F (stereo not drawn) [42 582] | 0.25 (≈ 0.375 µM) | 0.25 (≈ 0.375 µM) | 2 (≈ 3 µM) | 8 (≈ 12 µM)
13 | CC(C)(ON=C(C(=O)NC1C(=O)N2C(C(=O)O)=C(COC(=O)c3ccc(NC(=O)CCCN)cc3)C[S+]([O-])C12)c1csc(N)n1)C(=O)O (stereo not drawn) [42 688] | 0.125 (≈ 0.177 µM) | 0.25 (≈ 0.354 µM) | 4 (≈ 5.67 µM) | 4 (≈ 5.67 µM)
14 | CC(N)C(=O)Nc1ccc(C(=O)OCC2=C(C(=O)O)N3C(=O)C(NC(=O)C(=NOC4(C(=O)O)CCC4)c4csc(N)n4)C3[S+]([O-])C2)cc1 (stereo not drawn) [42 818] | 0.125 (≈ 0.178 µM) | 0.125 (≈ 0.178 µM) | 4 (≈ 5.68 µM) | 4 (≈ 5.68 µM)
15 | Cc1cc(CN)ccc1C(=O)OCC1=C(C(=O)O)N2C(=O)C(NC(=O)C(=NOC(C)(C)C(=O)O)c3csc(N)n3)C2[S+]([O-])C1 (stereo not drawn) [42 848] | 0.125 (≈ 0.193 µM) | 0.125 (≈ 0.193 µM) | 2 (≈ 3.08 µM) | 4 (≈ 6.17 µM)
16 | Cc1cc(CN)ccc1C(=O)SCC1=C(C(=O)O)N2C(=O)C(NC(=O)C(=NOC(C)(C)C(=O)O)c3csc(N)n3)C2[S+]([O-])C1 (stereo not drawn) [compound 42850] | 0.5 (≈ 0.752 µM) | 0.25 (≈ 0.376 µM) | 2 (≈ 3.01 µM) | 8 (≈ 12 µM)
17 | CC(C)(ON=C(C(=O)NC1C(=O)N2C(C(=O)O)=C(CSC(=O)c3cccc(NC(=O)CN)c3)C[S+]([O-])C12)c1csc(N)n1)C(=O)O (stereo not drawn) [compound 42685] | 2 (≈ 2.88 µM) | 1 (≈ 1.44 µM) | 2 (≈ 2.88 µM) | 8 (≈ 11.5 µM)
18 | NCC(=O)N1CCC(C(=O)SCC2=C(C(=O)O)N3C(=O)C(NC(=O)C(=NOC4(C(=O)O)CCC4)c4csc(N)n4)C3[S+]([O-])C2)CC1 (stereo not drawn) [compound 42674] | 1 (≈ 1.43 µM) | 0.5 (≈ 0.717 µM) | 2 (≈ 2.87 µM) | 8 (≈ 11.5 µM)
